US20250051313A1, “PHTHALAZINE DERIVATIVES AS PYRUVATE KINASE MODULATORS” (Sitryx Therapeutics Limited, priority 2021, published 2025)
Read-outs that look alike come from different tables or passages of the source.

Columns and labels:
[1] = target: pyruvate kinase (PK) activity in human CD4+ T cell lysates (Homo sapiens, UniProt P14618); assay: CD4+ T cell pyruvate kinase assay; type: cell-based; settings: human CD4+ T cells incubated with compound 20 minutes, then lysed; ΔAbsorbance OD570
Protocol: Compound activation of pyruvate kinase in human CD4+ T cell lysates was determined by biochemical assay. Primary CD4+ T cells were used rather than cancer cell lines to improve the disease relevance of the assay. The PK assay was sourced from Abcam. All other reagents were sourced from ThermoFisher. Test compounds were prepared as 10 mM DMSO stocks and dilution series prepared in DMSO for addition to intact CD4+ T cells cultured in RPMI media containing 10% FBS.
Human CD4+ T cells were incubated with compound for 20 minutes and then washed twice in 1×PBS before resuspension in Abcam PK lysis buffer to prepare cell lysates. 10 μl PK assay Reaction Mix was added per well, including OXIRED™ PROBE. The plates were read using a BMG Labtech Pherastar plate reader at OD570 nm in kinetic mode for […] (25 cycles of 2 minutes) at 25° C., protecting from light.
Plates were blank-subtracted and ΔAbsorbance calculated by subtracting the first plate read within the linear range from the plate read at the timepoint of interest. PK activity is expressed as ΔAbsorbance and plotted against log [Compound].

recombinant human PKLR = recombinant human PKLR (Homo sapiens (Human), UniProt P30613); assay: Human PKLR activation assay (Kinase-Glo Plus luminescence); type: biochemical
Sequence of recombinant human PKLR (P30613 whole entry): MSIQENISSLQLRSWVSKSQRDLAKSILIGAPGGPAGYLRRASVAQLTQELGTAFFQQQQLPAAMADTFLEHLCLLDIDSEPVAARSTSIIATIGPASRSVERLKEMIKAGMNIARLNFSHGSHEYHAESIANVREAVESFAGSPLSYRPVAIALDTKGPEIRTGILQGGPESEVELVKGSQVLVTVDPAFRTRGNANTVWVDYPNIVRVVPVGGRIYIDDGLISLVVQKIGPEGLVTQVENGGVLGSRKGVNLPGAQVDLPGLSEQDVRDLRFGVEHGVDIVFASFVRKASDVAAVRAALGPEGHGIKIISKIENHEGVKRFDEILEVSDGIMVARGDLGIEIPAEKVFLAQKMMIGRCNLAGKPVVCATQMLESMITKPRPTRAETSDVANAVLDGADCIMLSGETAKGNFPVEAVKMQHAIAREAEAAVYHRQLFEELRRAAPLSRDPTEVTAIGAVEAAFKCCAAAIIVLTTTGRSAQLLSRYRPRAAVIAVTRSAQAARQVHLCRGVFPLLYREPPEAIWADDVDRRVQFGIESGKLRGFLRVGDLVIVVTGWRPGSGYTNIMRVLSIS
Protocol: (§1) Measuring in vitro activation of recombinant human PKLR Compound activation of recombinant human PKLR pyruvate kinase activity was determined by biochemical assay. N-terminal His-tagged enzyme was sourced from R&D Systems and its substrates phosphoenolpyruvate (PEP) and ADP from Sigma-Aldrich and 2Bscientific Ltd, respectively. The Kinase-Glo® Plus luminescence assay was from Promega. All other reagents were from Sigma-Aldrich. Test Compounds were prepared as 10 mM DMSO stocks and dilution series prepared in DMSO for direct dilution into Assay Buffer comprising 50 mM imidazole, 50 mM KCl, 7 mM MgCl2, 0.01% Tween20, 0.05% BSA (pH 7.2).
Human PKLR was diluted into Assay Buffer to a final concentration of 5 pM. […]
(§2) After 60 minutes' incubation on an orbital shaker (300 rpm, 26° C.), enzyme activity was quantified by the luminescent detection of generated ATP. Kinase-Glo® Plus reagent was added to each well and the plates incubated for a further 15 minutes on an orbital shaker in the dark (300 rpm, 26° C.) before luminescence measurement on a plate reader (PHERAstar® FSX, BMG Labtech).
(§3) Percentage activation was calculated by normalising […] signals to plate LOW (DMSO vehicle) and HIGH (5 μM TEPP-46) controls. EC50 and Emax values were determined from 4-parameter logistic fits of compound concentration-response curves.

recombinant human PKM2 = recombinant human PKM2 (Homo sapiens (Human), UniProt P14618); assay: Human PKM2 activation assay (Kinase-Glo Plus luminescence); type: biochemical; settings: for Emax: read-out: hPKM2 Emax
Sequence of recombinant human PKM2 (P14618 whole entry): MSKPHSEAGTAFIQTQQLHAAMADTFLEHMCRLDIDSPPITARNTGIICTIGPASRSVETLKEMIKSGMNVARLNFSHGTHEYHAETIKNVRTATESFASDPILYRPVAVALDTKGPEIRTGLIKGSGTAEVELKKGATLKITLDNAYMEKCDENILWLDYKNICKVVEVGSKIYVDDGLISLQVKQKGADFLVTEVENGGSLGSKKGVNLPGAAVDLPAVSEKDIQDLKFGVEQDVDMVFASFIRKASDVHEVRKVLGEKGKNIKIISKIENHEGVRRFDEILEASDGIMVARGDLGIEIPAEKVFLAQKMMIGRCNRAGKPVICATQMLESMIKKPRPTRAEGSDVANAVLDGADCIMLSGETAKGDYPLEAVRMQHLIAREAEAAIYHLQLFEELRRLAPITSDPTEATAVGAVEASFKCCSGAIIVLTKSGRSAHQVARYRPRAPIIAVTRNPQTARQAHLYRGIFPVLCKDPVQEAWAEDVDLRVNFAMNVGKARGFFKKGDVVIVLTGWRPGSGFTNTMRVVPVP
Protocol: as §1, with “PKM2” for “PKLR”, “hPKM2” for “enzyme”
Human PKM2 was diluted into Assay Buffer comprising 50 mM imidazole, 50 mM KCl, 7 mM MgCl2, 0.01% Tween20, 0.05% BSA (pH 7.2) to a final concentration of 5 pM. Enzyme-Assay Buffer mix was dispensed into a 384-well shallow-well white-walled plate (PerkinElmer) and Test Compounds added by acoustic dispense (Echo®, Labcyte Inc.).
as §2, §3

Sequence of pyruvate kinase (PK) activity in human CD4+ T cell lysates (P14618 2-531 limits assumed): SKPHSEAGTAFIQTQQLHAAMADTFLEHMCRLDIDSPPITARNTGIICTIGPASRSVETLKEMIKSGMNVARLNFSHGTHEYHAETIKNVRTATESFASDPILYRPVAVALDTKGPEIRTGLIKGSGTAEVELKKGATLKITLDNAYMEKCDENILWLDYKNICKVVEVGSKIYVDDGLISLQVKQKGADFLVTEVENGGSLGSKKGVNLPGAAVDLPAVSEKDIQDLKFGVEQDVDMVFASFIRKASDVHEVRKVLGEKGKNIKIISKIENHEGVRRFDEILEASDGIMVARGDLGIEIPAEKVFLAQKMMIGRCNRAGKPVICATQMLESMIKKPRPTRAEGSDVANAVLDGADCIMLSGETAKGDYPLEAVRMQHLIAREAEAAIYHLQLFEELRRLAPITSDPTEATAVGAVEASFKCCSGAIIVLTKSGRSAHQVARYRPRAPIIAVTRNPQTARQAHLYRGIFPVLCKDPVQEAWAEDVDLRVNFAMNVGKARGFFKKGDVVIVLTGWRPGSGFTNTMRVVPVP

Structure (SMILES): O=c1c2ccc(S(=O)(=O)c3cn[nH]c3)cc2cnn1Cc1ccn(C2CC2)n1 [Example 1, 6-((1H-pyrazol-4-yl)sulfonyl)-2-((1-cyclopropyl-1H-pyrazol-3-yl)methyl) phthalazin-1(2H)-one]
- EC50 [1]: 82.5 nM
- Emax (recombinant human PKLR; percentage activation normalised to DMSO (LOW) and 5 μM TEPP-46 (HIGH), read-out: hPKLR Emax): 134%
- EC50 (recombinant human PKLR; recombinant His-tagged hPKLR, activation, 4-parameter logistic fit): 10.3 nM
- Emax (recombinant human PKM2; data from repeated experiments, normalised to DMSO and 5 μM TEPP-46): 107%
- EC50 (recombinant human PKM2; data from repeated experiments, read-out: hPKM2 EC50): 107 nM
- Emax (recombinant human PKM2; percentage activation normalised to DMSO (LOW) and 5 μM TEPP-46 (HIGH)): 114%
- EC50 (recombinant human PKM2; recombinant His-tagged hPKM2, activation, 4-parameter logistic fit): 64.5 nM
